One assay relates to C57 BL/6J DIO mice. Briefly: In vivo pharmacodynamics in high-fat diet induced obesity (DIO) mice. Also on record: species or system mouse. As to conditions: Mean±SEM; for LDL-C / TC (total cholesterol) / TG (plasma triglycerides) / Blood sugar (fasting blood glucose) / Insulin (blood): Day 15. Put shortly: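 DIO mice (60 kcal% fat diet) dosed subcutaneously in 1×PBS, 5 ml/kg, every three days for 15 days. Daily body weight and food intake as % change from baseline; day 15 fasting glucose, plasma TC, LDL-C, TG, insulin and liver TG. Mean±SEM, one-way ANOVA with Dunnett's versus vehicle.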

The target of the next assay is T1, Human GCG R (Homo sapiens, UniProt P47871).
T1 construct: expressed in transfected cells; host or cells: HEK-293
T1 sequence (P47871 26-477): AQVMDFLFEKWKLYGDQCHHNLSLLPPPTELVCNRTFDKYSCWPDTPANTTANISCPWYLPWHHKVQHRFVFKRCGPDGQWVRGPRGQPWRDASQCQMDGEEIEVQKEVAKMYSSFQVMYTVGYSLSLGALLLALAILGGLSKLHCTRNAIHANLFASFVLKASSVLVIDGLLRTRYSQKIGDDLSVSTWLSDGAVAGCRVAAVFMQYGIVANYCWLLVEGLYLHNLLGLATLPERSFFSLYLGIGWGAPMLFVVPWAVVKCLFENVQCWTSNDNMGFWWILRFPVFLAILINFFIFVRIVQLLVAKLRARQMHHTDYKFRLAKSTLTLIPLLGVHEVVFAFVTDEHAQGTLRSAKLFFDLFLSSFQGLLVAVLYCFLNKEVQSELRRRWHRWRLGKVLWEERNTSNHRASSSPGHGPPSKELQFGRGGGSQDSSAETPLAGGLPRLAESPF
As to the kind of experiment: cAMP (HTRF) activity in HEK-293 cells stably overexpressing human GCG receptor. The note with it: EC50 of human GCG / EC50 of compound. Type of assay: cell-based. Put shortly:
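Cells resuspended in HBSS are incubated with compound for 60 min at room temperature, then with HTRF cAMP detection reagent for a further 60 min. Concentration-response fits give agonist EC50 values in nM.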

Starred links: 1 amine or outer side, 2 acyl side, 3 side chain; linkers in the order of their positions; H or OH if unused. Non-standard residues stand in square brackets, D forms with d. Residues, ends and D or L forms follow the SMILES beside them. Groups on a side chain read outwards from the residue. *: point of attachment. C20 diacid = O=C(O)CCCCCCCCCCCCCCCCCCC(=O)*; αMePhe(2-F) = C[C@](N)(Cc1ccccc1F)C(=O)O; γGlu = O=C(O)[C@H](CCC(=O)[*:2])N[*:1]; αMeL = CC(C)C[C@](C)(N)C(=O)O; AEEA = NCCOCCOCC(=O)O; Aib = CC(C)(N)C(=O)O

As to `CC[C@H](C)[C@H](NC(=O)[C@H](Cc1ccccc1)NC(=O)[C@H](C)NC(=O)C(C)(C)NC(=O)[C@H](CCC(N)=O)NC(=O)[C@H](C)NC(=O)[C@H](CCCCNC(=O)COCCOCCNC(=O)COCCOCCNC(=O)CC[C@H](NC(=O)CCCCCCCCCCCCCCCCCCC(=O)O)C(=O)O)NC(=O)[C@H](CCCCN)NC(=O)[C@H](CC(=O)O)NC(=O)[C@H](CC(C)C)NC(=O)[C@H](Cc1ccccc1)NC(=O)[C@@H](NC(=O)[C@H](CO)NC(=O)[C@H](Cc1ccc(O)cc1)NC(=O)[C@H](CC(=O)O)NC(=O)[C@H](CO)NC(=O)[C@@H](NC(=O)[C@](C)(Cc1ccccc1F)NC(=O)[C@@H](NC(=O)CNC(=O)[C@H](CCC(N)=O)NC(=O)C(C)(C)NC(=O)[C@@H](N)Cc1ccc(O)cc1)[C@@H](C)O)[C@@H](C)O)[C@@H](C)CC)C(=O)N[C@@H](CCC(=O)O)C(=O)N[C@@H](Cc1ccc(O)cc1)C(=O)N[C@@H](CC(C)C)C(=O)N[C@@H](CC(C)C)C(=O)N[C@@H](CCC(=O)O)C(=O)NC(C)(C)C(=O)N[C@@H](Cc1c[nH]cn1)C(=O)N1CCC[C@H]1C(=O)N[C@@H](CO)C(=O)N[C@@H](CO)C(=O)NCC(=O)N[C@@H](C)C(=O)N1CCC[C@H]1C(=O)N1CCC[C@H]1C(=O)N1CCC[C@H]1C(=O)N[C@@H](CO)C(N)=O` [Compound 18], the Weight change with C57 BL/6J DIO mice (Table 6-1, 3 nmol/kg s.c. Q3D for 15 days) is on record as −22.2 ± 0.89%; in the assay on C57 BL/6J DIO mice (Table 6-1, 10 nmol/kg s.c. Q3D for 15 days) it was −30.6 ± 1.26%; in the assay with C57 BL/6J DIO mice (Table 6-1, 30 nmol/kg s.c. Q3D for 15 days) it was −45.0 ± 1.52%. Moreover, the LDL-C with C57 BL/6J DIO mice (Table 7-1, 3 nmol/kg) worked out at 0.60 ± 0.043 mM; in the assay with C57 BL/6J DIO mice (Table 7-1, 30 nmol/kg), 0.35 ± 0.036 mM. For the same compound, the “TC (total cholesterol)” value in the assay on C57 BL/6J DIO mice (Table 7-1, 3 nmol/kg) amounted to 3.77 ± 0.234 mM; with C57 BL/6J DIO mice (Table 7-1, 30 nmol/kg) it was 2.32 ± 0.161 mM. In addition, the “TG (plasma triglycerides)” value in the assay with C57 BL/6J DIO mice (Table 7-1, 3 nmol/kg) is reported as 0.90 ± 0.027 mM; with C57 BL/6J DIO mice (Table 7-1, 30 nmol/kg), 0.61 ± 0.041 mM. In the assay on C57 BL/6J DIO mice (Table 8-1, 3 nmol/kg), the “Blood sugar (fasting blood glucose)” value stood at 98.5 ± 9.17 mg/dL. The “Insulin (blood)” value in the assay on C57 BL/6J DIO mice (Table 8-1, 3 nmol/kg) is 21.2 ± 3.73 mIU/L.

As for `CC[C@H](C)[C@H](NC(=O)[C@H](Cc1ccccc1)NC(=O)[C@H](C)NC(=O)C(C)(C)NC(=O)[C@H](CCC(N)=O)NC(=O)[C@H](C)NC(=O)[C@H](CCCCNC(=O)COCCOCCNC(=O)COCCOCCNC(=O)CC[C@H](NC(=O)CCCCCCCCCCCCCCCCCCC(=O)O)C(=O)O)NC(=O)[C@H](CCCCN)NC(=O)[C@H](CC(=O)O)NC(=O)[C@H](CC(C)C)NC(=O)[C@](C)(CC(C)C)NC(=O)[C@@H](NC(=O)[C@H](CO)NC(=O)[C@H](Cc1ccc(O)cc1)NC(=O)[C@H](CC(=O)O)NC(=O)[C@H](CO)NC(=O)[C@@H](NC(=O)[C@](C)(Cc1ccccc1F)NC(=O)[C@@H](NC(=O)CNC(=O)[C@H](CCC(N)=O)NC(=O)C(C)(C)NC(=O)[C@@H](N)Cc1ccc(O)cc1)[C@@H](C)O)[C@@H](C)O)[C@@H](C)CC)C(=O)N[C@@H](CCC(=O)O)C(=O)N[C@@H](Cc1ccccc1)C(=O)N[C@@H](CC(C)C)C(=O)N[C@@H](CC(C)C)C(=O)N[C@@H](CCC(=O)O)C(=O)N[C@H](C(=O)NCC(=O)N1CCC[C@H]1C(=O)N[C@@H](CO)C(=O)N[C@@H](CO)C(=O)NC(C)(C)C(=O)N[C@@H](Cc1c[nH]cn1)C(=O)N1CCC[C@H]1C(=O)N1CCC[C@H]1C(=O)N1CCC[C@H]1C(=O)N[C@@H](CO)C(N)=O)[C@@H](C)O` [Compound 38] (H-Y[Aib]QGT[αMePhe(2-F)]TSDYSI[αMeL]LDKK([AEEA-AEEA-γGlu-C20 diacid])AQ[Aib]AFIEFLLETGPSS[Aib]HPPPS-NH2; N-terminus assumed), on Human GCG R, the “Human GCG R Rel. A (Relative Activity)” value is listed as 83.82%. For the same compound, the Weight change in the assay with C57 BL/6J DIO mice (Table 6-2, 3 nmol/kg s.c. Q3D for 15 days) is given as −19.0 ± 1.30%. Moreover, the Weight change in the assay on C57 BL/6J DIO mice (Table 6-2, 10 nmol/kg s.c. Q3D for 15 days) is −25.7 ± 2.26%. For the same compound, in the assay on C57 BL/6J DIO mice (Table 7-2, 3 nmol/kg), the LDL-C is on record as 0.39 ± 0.025 mM, the “TC (total cholesterol)” value was determined as 3.49 ± 0.151 mM and the “TG (plasma triglycerides)” value was 0.74 ± 0.019 mM. Further, in the assay with C57 BL/6J DIO mice (Table 7-2, 10 nmol/kg), the LDL-C amounted to 0.35 ± 0.053 mM, the “TC (total cholesterol)” value came out at 3.12 ± 0.186 mM and the “TG (plasma triglycerides)” value stood at 0.63 ± 0.051 mM. Also, in the assay with C57 BL/6J DIO mice (Table 8-2, 3 nmol/kg), the “Blood sugar (fasting blood glucose)” value was found to be 151.7 ± 8.46 mg/dL and the “Insulin (blood)” value is listed as 24.9 ± 5.43 mIU/L.

Source of the values: patent publication US20250129135A1, “Multi-Agonist and Use Thereof” (priority 2021, published 2025).
